Experimental data reported in patent US20200020099A1, “INFORMATION PROCESSING DEVICE, INFORMATION PROCESSING SYSTEM, AND INFORMATION PROCESSING METHOD” (SONY CORPORATION, priority 2017, published 2020).

Columns and labels:
[1] = test system: HL60 cell; assay: Quantification of morphological change (area change amount, peripheral length change amount) from phase difference moving images; type: cell-based
Description: An image (moving image) of an HL60 cell that had been differentiated and stimulated by adding 1% DMSO and performing culture for one week was imaged over time with a phase difference microscope under conditions that magnification of an objective lens was 60 times, an imaging interval was 27 frames/second, and imaging time was 60 seconds. FIG. 5 is an image illustrating cell boundary recognition and tracking according to Example 1. […] Thereafter, the cell boundary was tracked by matching the drawn solid line to a next image. Then, a cell area in the continuous image was tracked by repeating matching to the continuous image.
Thereafter, the area and the peripheral length were calculated from the tracked cell area, and an average of the areas, an average of the peripheral lengths, and change amounts thereof in the continuous image were calculated. Then, the change amount with respect to the average of the areas or peripheral lengths was calculated as the morphological change amount (area change amount and peripheral length change amount). This was used as Control. By a similar method, as for a case where 100 μM of a mitochondrial […] agent, carbonyl cyanide m-chlorophenylhydrazone (also simply referred to as “CCCP” here), which is a drug that inhibits intracellular metabolism, was added, the morphological change amount was calculated similarly. The upper drawing of FIG. 6 is a drawing-substituting graph illustrating an area change amount and a peripheral length change amount according to Example 1, and the lower drawing of FIG. 6 is an image illustrating cell boundary recognition and tracking in Control and in a case where CCCP is added according to Example 1.

[2] = test system: HL60 cell; assay: Motion amount of the intracellular structure (motion vector analysis) from moving images; type: cell-based; settings: concentrations of 0.01 μM, 0.1 μM, 1 μM, and 10 μM, FIG. 7
Description: More specifically, the analysis unit 121 extracts a motion vector between at least two imaged images having different imaging times. For example, the analysis unit 121 can extract a motion vector from a range designated by a user using a […], a gradient method, or the like. Note that the analysis unit 121 may extract a motion vector from the entire imaged image.
The length of a motion vector is a motion amount. The analysis unit 121 can calculate a motion amount (motion speed) of an intracellular structure per unit time from an interval (time) of the two imaged images from which the motion vector has been extracted. Note that in the present technology, the motion amount of the intracellular structure can be determined using an average value, a median value, a maximum value, a standard deviation, and the like of the lengths of the motion vectors.
By a similar method to Example 1 described above, the morphological change amounts (area change amounts and peripheral length change amounts) in a case where CCCP was added at concentrations of 0.01 μM, 0.1 μM, 1 μM, and 10 μM were calculated, respectively. Furthermore, a motion vector under similar conditions was calculated at an interval of about 1 μm, and a spatiotemporal average of the motion amounts (motion speeds) per unit time for each cell was calculated to create a color map. […]

[3] = 200 nM added, HL60 cell, vs Control, FIG. 10
[4] = 100 μM added, differentiated HL60 cell (1% DMSO, one week), vs Control, FIG. 6
[5] = concentrations of 0.01 μM, 0.1 μM, 1 μM, and 10 μM, HL60 cell, FIG. 7

| Structure (SMILES) | area change amount [1, 3] | peripheral length change amount [1, 3] | area change amount [1, 4] | peripheral length change amount [1, 4] | area change amount [1, 5] | peripheral length change amount [1, 5] | motion amount (vector analysis) of the intracellular structure [2] |
| --- | --- | --- | --- | --- | --- | --- | --- |
| C=C1[C@@H](C)[C@H]2[C@H](Cc3ccccc3)NC(=O)[C@]23[C@H](OC(C)=O)/C=C/[C@@](C)(O)C(=O)[C@@H](C)C/C=C/[C@H]3[C@@H]1O [Cytochalasin D] | significant decrease | significant decrease | – | – | – | – | – |
| N#CC(C#N)=NNc1cccc(Cl)c1 [CCCP, carbonyl cyanide m-chlorophenylhydrazone] | – | – | significant decrease | significant decrease | concentration-dependent decrease | concentration-dependent decrease | concentration-dependent decrease |
